Measured values reported in ChEMBL document CHEMBL1201862, “PubChem BioAssay data set” (2004).
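Exposure lasted 48 hours, with cells grown in 96-well plates and compounds tested at five concentrations. GI50 = concentration required for 50% inhibition of growth.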 The source made the active and inactive calls. No stated cut-off is given here; in the data, active = GI50 up to about 1.1 µM and inactive = higher.

Experiments:
Test in all cases: NCI tumour cell line growth inhibition, 48 h
[1] = tested on: RXF 393
[2] = tested on: SF-539
[3] = tested on: MOLT-4
[4] = tested on: CAKI-1
[5] = tested on: A498
[6] = tested on: SK-OV-3
[7] = tested on: SW-620
[8] = tested on: HCC 2998
[9] = tested on: HCT-116
[10] = tested on: SN12C
[11] = tested on: Malme-3M
[12] = tested on: IGROV-1
[13] = tested on: NCI-H460
[14] = tested on: KM12
[15] = tested on: COLO 205
[16] = tested on: SNB-19
[17] = tested on: OVCAR-8

Measured: GI50

Cc1cc(C)c(C(=O)OC(c2ccccc2)C(c2ccccc2)N2CCOCC2)c(C)c1 (stereo unspecified)
inactive: [1] 91 µM | [2] > 100 µM | [3] 93.3 µM | [4] > 100 µM | [5] > 100 µM | [6] > 100 µM | [7] > 100 µM | [8] > 100 µM | [9] > 100 µM | [10] > 100 µM | [11] > 100 µM | [12] > 100 µM | [13] > 100 µM | [14] > 100 µM | [15] > 100 µM | [16] > 100 µM

COC(=O)[C@@]1(C(C)CC(=O)O)CCCCC1=O (stereo partly specified)
inactive: [1] > 100 µM | [2] > 100 µM | [3] > 100 µM | [4] > 100 µM | [5] > 100 µM | [6] > 100 µM | [8] > 100 µM | [9] > 100 µM | [10] > 100 µM | [11] > 100 µM | [12] > 100 µM | [13] > 100 µM | [14] > 100 µM | [17] > 100 µM | [15] 50.7 µM | [16] > 100 µM

CC(C)(C)[Si](C)(C)OC1C(=O)C[C@H]2CCCC[C@@H]12 (stereo partly specified)
inactive: [1] > 100 µM | [2] > 100 µM | [3] > 100 µM | [4] > 100 µM | [5] > 100 µM | [6] > 100 µM | [7] > 100 µM | [8] > 100 µM | [9] > 100 µM | [10] > 100 µM | [11] > 100 µM | [12] > 100 µM | [13] > 100 µM | [14] > 100 µM | [17] > 100 µM | [15] > 100 µM | [16] > 100 µM

Cn1c(=O)cc2[nH]c3ccccc3n2c1=O
inactive: [1] 28.8 µM | [2] 20.3 µM | [3] > 100 µM | [4] > 100 µM | [5] > 100 µM | [6] 48.8 µM | [7] 22.7 µM | [8] 72.8 µM | [9] > 10 µM | [10] > 10 µM | [11] > 100 µM | [12] > 100 µM | [13] 57.5 µM | [14] > 100 µM | [17] 43.8 µM | [15] 14.2 µM | [16] > 100 µM

O=c1c2ccccc2[nH]c2c(O)ccc(O)c12
inactive: [1] 11.7 µM | [2] 27.6 µM | [3] 7.91 µM | [4] 13.9 µM | [5] 38.3 µM | [6] 25.7 µM | [7] 18 µM | [8] > 100 µM | [9] 20.7 µM | [10] 14.2 µM | [11] 24 µM | [12] 15.1 µM | [13] 24.9 µM | [14] 45.1 µM | [17] 17.9 µM | [15] > 10 µM | [16] 38.7 µM

S=C1SCC2CCCN12 (stereo unspecified)
inactive: [1] > 100 µM | [2] > 100 µM | [3] > 100 µM | [4] > 100 µM | [5] > 100 µM | [6] > 100 µM | [7] > 100 µM | [8] > 100 µM | [9] > 100 µM | [10] > 100 µM | [11] > 100 µM | [12] > 100 µM | [13] > 100 µM | [14] > 100 µM | [17] > 100 µM | [15] > 100 µM | [16] > 100 µM

Cn1cnc([N+](=O)[O-])c1Sc1nc2ccccc2o1
inactive: [1] 8.91 µM | [2] 9.64 µM | [3] 2.52 µM | [4] 1.9 µM | [5] 19.3 µM | [6] 22.8 µM | [7] 3.72 µM | [8] 11 µM | [9] 3.58 µM | [10] 6.78 µM | [11] 5.41 µM | [12] 13.2 µM | [13] 32.3 µM | [14] 5.18 µM | [17] 2.82 µM | [15] 1.7 µM | [16] 17.7 µM

COc1ccc(/C(Cl)=C(\C=O)c2ccc([N+](=O)[O-])cc2)cc1
inactive: [1] 11.5 µM | [2] 12.6 µM | [3] 2.42 µM | [4] 11.1 µM | [5] 22.4 µM | [6] 33 µM | [7] 4.34 µM | [8] 21 µM | [10] 12.3 µM | [11] 15.6 µM | [12] 22.4 µM | [13] 18.3 µM | [14] 2.4 µM | [17] 10.9 µM | [15] 19.1 µM | [16] 18.5 µM

O=C(CCc1cc(-c2ccco2)n(-c2ccc([N+](=O)[O-])cc2[N+](=O)[O-])n1)Nc1ccccc1
inactive: [1] > 100 µM | [2] > 100 µM | [3] 65.8 µM | [4] > 100 µM | [5] > 100 µM | [6] > 100 µM | [7] > 100 µM | [8] > 100 µM | [9] > 100 µM | [10] > 100 µM | [11] 32.8 µM | [12] > 100 µM | [13] > 100 µM | [14] > 100 µM | [17] > 100 µM | [15] > 100 µM | [16] > 100 µM

Cc1cc(=O)cc2sc3c(C)cccc3nc1-2
inactive: [1] 35.4 µM | [2] 31.1 µM | [3] 14.4 µM | [4] 39.9 µM | [5] 23.3 µM | [6] > 100 µM | [7] 4.56 µM | [8] 51.4 µM | [9] 22.4 µM | [10] 23.6 µM | [11] 92.7 µM | [12] 24.9 µM | [13] 25.4 µM | [14] 22.5 µM | [17] 27.7 µM | [15] 18.4 µM | [16] > 100 µM

C=C1C(=O)OC2C[C@H](C)C3CC(=O)C(C)=C3CC12 (stereo partly specified)
inactive: [1] 13.2 µM | [2] 17.2 µM | [3] 6.92 µM | [4] 5.09 µM | [5] 19.5 µM | [6] > 57 µM | [7] 4.81 µM | [8] 15.5 µM | [9] 6.38 µM | [10] 12.1 µM | [11] 11.8 µM | [12] 15.4 µM | [13] 21.9 µM | [14] 16 µM | [17] 16.8 µM | [15] 10.4 µM | [16] 32.9 µM

CN1CCc2c1nc(-c1ccc(Cl)cc1)c1c2N(C)CC1
inactive: [1] 10.9 µM | [2] 15.4 µM | [3] 6.28 µM | [4] 6.44 µM | [5] 19.7 µM | [6] 21.2 µM | [7] 24.4 µM | [8] 19.4 µM | [9] 1.85 µM | [10] 23.1 µM | [11] > 100 µM | [12] 3.06 µM | [13] 15.7 µM | [14] 3.7 µM | [17] 25.5 µM | [15] 2.07 µM | [16] 22.5 µM
